This is an account of results in patent US20240059735A1, “COMPOSITIONS AND METHODS FOR THE PREVENTION AND TREATMENT OF MIT[…]” (Stealth BioTherapeutics Inc., priority 2016, published 2024).

The test system of data set [1] is several mammalian cell types. The conditions noted are these: cited from earlier work.
For data set [2] the following is noted: 0.01-0.25 mg/kg/hr IV, five days. The method, then:
Control mitochondrial myopathy subjects (Group 4) received equal volumes of saline solution administered for two hours. All groups were treated for five consecutive days. The demographics of the subjects are disclosed in Table 5.

Where a SMILES comes first, the peptide text is derived from it. [ ]: non-standard residue; d: D form. Dmt = Cc1cc(O)cc(C)c1C[C@H](N)C(=O)O

With 2′,6′-Dmt-D-Arg-Phe-Lys-NH2, in data set [1], the “penetration of the plasma membrane” value is “readily penetrates the plasma membrane of several mammalian cell types in an energy-independent manner”.

As for `Cc1cc(O)cc(C)c1C[C@H](NC(=O)[C@H](N)CCCNC(=N)N)C(=O)N[C@@H](CCCCN)C(=O)N[C@@H](Cc1ccccc1)C(N)=O` [D-Arg-2′,6′-Dmt-Lys-Phe-NH2] (H-[dR][Dmt]KF-NH2), in data set [2], the serious adverse events entry is listed as “None of the test subjects exhibited any serious adverse events” and the “vital signs, electrocardiograms, clinical laboratory findings” value was “no significant trends changes”.
